The text below walks through data of patent US20140073611A1, “METHODS FOR DRUG SCREEN USING ZEBRAFISH MODEL AND THE COMPOUNDS SCREENED THEREFROM” (National Taiwan University, priority 2012, published 2014).

For assay [1], the system named is lumican knockdown zebrafish (zLum-MO). Nature of the assay: Drug screen in lumican (zLum-MO) knockdown zebrafish: big eye ratio / scleral coat enlargement. Format: in vivo. Particulars: for outcome of the screen of about 30 drugs: lumican knockdown zebrafish model; for % of scleral enlargement in experimental group: zLum-MO knockdown model, vs. 30% of scleral enlargement in control group. Here is the method:
The term “big eye” denotes that an eye with a value of the axial length of the retinal pigmented epithelium layer divided by the axial length of the scleral coat is less than 0.7.
According to the disclosure, the knockdown zebrafish are exposed to a test compound at the optic cup formation stage thereof. Generally, at around 24 hours after fertilization, the optic cup of zebrafish is formed. The knockdown zebrafish can be exposed to the test compound at the optic cup formation stage. After contacting the knockdown zebrafish with the test compound, the test compound, if it is a potential candidate, may start to activate the expression of lumican and collagen fibrillogenesis, thereby decreasing the enlargement of eyeball and treating and/or preventing myopia and/or keratoconus disease. Retina lenses are established around 48 hours after fertilization, and the sclera and cornea are established around 72 hours after fertilization. At sclera and cornea establishment stage, the zebrafish are collected.
(§1) Big eye in a zebrafish is an indicator of myopia. As used herein, a “big eye” refers to an eye with an enlarged axial length of eyeball and denotes the value of the axial length of the retinal pigmented epithelium layer divided by the axial length of the scleral coat less than 0.7. The axial length of a retinal pigmented epithelium layer and the axial length of a scleral coat can be measured by any method known in the art—for example, dissecting microscopy.
The test compound can be identified as a candidate compound affecting the expression of lumican and/or collagen fibrillogenesis and/or regulation of eyeball size, and/or treating and/or preventing myopia and/or keratoconus disease if the ratio of the number of big eyes decreases relative to the total number of eyes in zebrafish or that of big eyes in control zebrafish that is not contacted with the test compound. […] Preferably, the ratio is less than 15%. More preferably, the ratio decreases to about 0% to about 30%, about 0% to about 25%, about 0% to about 20%, about 0% to about 15%, about 0% to about 10%, about 1% to about 30%, about 1% to about 25%, about 1% to about 20% or about 1% to about 15%.
Zebrafish are raised and maintained according to previously established protocols (Soules K A, Link B A. Morphogenesis of the anterior segment in the zebrafish eye. BMC Dev Biol 2005; 5:12). All experiments are performed on Tuebingen AB zebrafish raised at 28° C. on a 14-h light and 10-h dark cycle and maintained using standard methods. Embryos are staged according to morphological criteria (somite number) (Kimmel C B, Ballard W W, Kimmel S R, et al. Stages of embryonic development of the zebrafish. Dev Dyn 1995; 203(3):253-310) and timed in hours after fertilization. Embryos are generated by natural pair-wise mating, as described in the zebrafish handbook (Westerfield M. The Zebrafish Book; A Guide for the Laboratory Use of Zebrafish (Brachydanio rerio). University of Oregon Press, Eugene, 2nd edition 300P., 1993). For each mating, 4±5 pairs are set up and, on an average; 100±150 embryos per pair are generated. The zebrafish embryo is optically transparent, making it possible to detect functional and morphological changes in internal organs without having to kill or dissect the organism. Chorions are removed manually with Dumont Watchmaker's Forceps No. 5.
Morpholinos are chemically modified antisense oligonucleotides that can be designed to hybridize to the translation-initiation or splicing acceptor/donor sites of specific mRNAs (Nasevicius A, Ekker S C. Effective targeted gene ‘knockdown’ in zebrafish. Nat Genet 2000; 26(2):216-20). A morpholino-antisense oligonucleotide (Gene Tools, Philomath, Oreg.) are designed and synthesized to target the 5′-untranslated and/or flanking regions, including the translation start codon of the respective genes. The MO sequence is designed as follows: zLum-MO, 5′-[…]-3′.

In assay [2] the test system is zLum-MO-injected fish. Nature of the assay: Eye morphometry and phenotype of zLum-MO-injected fish after muscarinic antagonist treatment (FIGS. 7-8). Format: in vivo, zebrafish. Conditions: for diameter of the scleral coat / excessive axial elongation: zLum-MO-injected fish at 7 dpf, FIG. 7(C); for diameter of the scleral coat / excessive axial elongation / ratio of RPE/scleral coat (%): 0.5% atropine, 0.25% pirenzepine; for diameter of the scleral coat / excessive axial elongation / ratio of RPE/scleral coat (%) / ocular enlargement (phenotype): 0.01% methoctramine; for ratio of RPE/scleral coat (%): zLum-MO-injected fish, FIG. 7(D); for ocular enlargement (phenotype): zLum-MO-injected larvae at 7 dpf, 0.5% atropine for 2 days, 0.25% pirenzepine for 2 days, FIG. 8.
Source text: FIGS. 7(A)-(D) depict a zebrafish drug screen assay. FIGS. 7(A) and (B) illustrate and define the outer margin of the retinal pigmented epithelium layer (RPE(red color)) and the diameter of the scleral coat (D(green color)) in zebrafish.
as §1
Morpholinos are chemically modified antisense oligonucleotides that can be designed to hybridize to the translation-initiation or splicing acceptor/donor sites of specific mRNAs (Nasevicius A, Ekker S C. Effective targeted gene ‘knockdown’ in zebrafish. Nat Genet 2000; 26(2):216-20). A morpholino-antisense oligonucleotide (Gene Tools, Philomath, Oreg.) are designed and synthesized to target the 5′-untranslated and/or flanking regions, including the translation start codon of the respective genes. The MO sequence is designed as follows: zLum-MO, 5′-[…]-3′. This oligonucleotide complemented the sequence from −8 through +17 with respect to the translation initiation codon. A random sequence MO (RS-MO) serves as a control for zLum-MO: 5′-[…]-3′. This RS-MO is obtained from Gene Tools as a standard control oligonucleotide with no target specificity (Yeh L K, Liu C Y, Kao W W, et al. Knockdown of zebrafish lumican gene (zlum) causes scleral thinning and increased size of scleral coats. J Biol Chem 2010; 285(36):28141-55).
(§2) Morpholino is resuspended in sterile water to a concentration of 1 mmol/L and diluted to […] with sterile water. The morpholinos are injected at the single-cell stage in a volume of 0.0023 nL. Here, we identified the effects of morpholinos on protein levels are assayed with western blotting from injected embryos with GAPDH as a control.

The test system of assay [3] is lumican, collagen 1a1, TGF-beta, MMP2 and TIMP2. Kind of assay: Expression patterns in atropine-treated zLum knockdown morphant (FIG. 9). Format: in vivo, zebrafish. Here is the method: FIG. 9 depicts atropine rescues zLum knockdown morphant.
as §2
We used several antibodies to evaluate the effects of lumican knockdown and all can be obtained from different commercial supplies. Rabbit anti-TGFβ2, Rabbit anti-MMP-2, Goat anti-TIMP-2, Goat anti-Col1a1 (L-19) and Goat anti-PDI are obtained from Santa Cruz. Mouse anti-GAPDH is obtained from Abnova.

The subject of assay [4] is zLum-MO-injected fish. Particulars: in vivo zebrafish larvae assays; prior reference Yeh et al., J Biol Chem 2010; cited from earlier work.

Where a name gives a salt, the structure may show the parent alone.

Take `CC(=O)Oc1ccccc1C(=O)O` [Aspirin]: in assay [1], the “outcome of the screen of about 30 drugs” value was “effective candidate compounds” and the “% of scleral enlargement in experimental group” value (“% of scleral enlargement” below) was 9.6%.
Consider `CN1[C@@H]2CC[C@H]1C[C@@H](OC(=O)C(CO)c1ccccc1)C2` (some centres unmarked) [Atropine], for which, in the assay on zLum-MO-injected fish [2] (lumican knockdown fish, administration of atropine, FIGS. 7 to 9), the scleral coat enlargement result was “could be inhibited”. For the same molecule, in the assay with zLum-MO-injected fish [2], the “diameter of the scleral coat” value is on record as “Significant decreases”, the excessive axial elongation entry is given as “significant decreases”, the “ratio of RPE/scleral coat (%)” value was “attenuate the decreasing ratio” and the “ocular enlargement (phenotype)” value is reported as “significant decreases in ocular enlargement”. Moreover, the “expression of MMP-2 and TIMP” value in assay [3] (lumican knockdown fish, atropine treatment) is “returned to the normal level”. In addition, the “expressions of lumican, collagen 1a1, TGF-beta, MMP2 and TIMP2 in lumican morphant” value in assay [3] (zLum knockdown morphant treated with atropine, FIG. 9) is on record as “reverse the expressions”. Besides, the “ocular enlargement caused by morpholinos” value in the assay with zLum-MO-injected fish [4] was “effectively subdued the ocular enlargement”.
With `C[C@H](CS)C(=O)N1CCC[C@H]1C(=O)O` [Captopril], the “outcome of the screen of about 30 drugs” value in assay [1] is “effective candidate compounds”.
As to `C[C@H]1c2cccc(O)c2C(=O)C2=C(O)[C@]3(O)C(=O)C(C(N)=O)=C(O)[C@@H](N(C)C)[C@@H]3[C@@H](O)[C@@H]21` [Doxycycline hyclate], the “% of scleral enlargement” value in assay [1] is 6.8%.
For the molecule `CC(C)[N+]1(C)[C@@H]2CC[C@H]1CC(OC(=O)C(CO)c1ccccc1)C2.[Br-]` (some centres unmarked) [Ipratropium bromide], the “Big eye rate(%)” value in assay [1] (lumican knockdown zebrafish, big eye = RPE/scleral coat axial length < 0.7, Conc.: Atropine 0.50%, Tropicamide 1 mM, Ipratropium 50 mM, Oxybutynin 2 uM, Scopolamine 100 uM, Pirenzepine 0.25%, SB 431542 25 uM, Tamoxifen 20 uM, Doxycycline 100 ppm, Genistein 25 uM, Marimastat 50 uM, Taurine 0.2M, Minocycline 50 uM, n-acetylcysteine 10 uM, Aspirin 50 mg/L, Propofol 0.5 mM, SP600125 2.5 uM, Zileuton 1) is reported as 26.0%.
In the case of `CNC(=O)[C@@H](NC(=O)[C@H](CC(C)C)[C@H](O)C(=O)NO)C(C)(C)C` [Marimastat], in assay [1], the “outcome of the screen of about 30 drugs” value is on record as “effective candidate compounds” and the “% of scleral enlargement” value stood at 2%.
On to `CN(C)c1ccc(O)c2c1C[C@H]1C[C@H]3[C@H](N(C)C)C(O)=C(C(N)=O)C(=O)[C@@]3(O)C(O)=C1C2=O` [Minocycline hydrochloride], for which the “% of scleral enlargement” value in assay [1] came to 4.7%.
Take `CN1CCN(CC(=O)N2c3ccccc3C(=O)Nc3cccnc32)CC1` [Pirenzepine dihydrochloride]: in the assay on zLum-MO-injected fish [2], the “diameter of the scleral coat” value was “Significant decreases”, the excessive axial elongation result is reported as “significant decreases”, the “ratio of RPE/scleral coat (%)” value is “attenuate the decreasing ratio” and the “ocular enlargement (phenotype)” value was “decreases in ocular enlargement”. Moreover, in the assay with zLum-MO-injected fish [4], the “ocular enlargement caused by morpholinos” value is on record as “effectively subdued the ocular enlargement”.
As for `CC(C)c1cccc(C(C)C)c1O` [Propofol, 2,6-diisopropylphenol], in assay [1], the “outcome of the screen of about 30 drugs” value is given as “effective candidate compounds” and the “% of scleral enlargement” value came out at 12%.
Turning to `COc1ccccc1CNCCCCCCNCCCCCCCCNCCCCCCNCc1ccccc1OC` [methoctramine], in the assay with zLum-MO-injected fish [2], the “diameter of the scleral coat” value is reported as “no obvious changes”, the excessive axial elongation entry was “no obvious changes”, the “ratio of RPE/scleral coat (%)” value is given as “no obvious changes” and the “ocular enlargement (phenotype)” value is “no obvious changes in the phenotypes”.
`CC(=O)N[C@@H](CS)C(=O)O` [n-acetylcysteine]: in assay [1], the “outcome of the screen of about 30 drugs” value is reported as “effective candidate compounds” and the “% of scleral enlargement” value is given as 11.7%.
